One may read the IC50 as the concentration needed to halve the response being measured.

The target of the assay is T1, human PAR-1 (Homo sapiens, UniProt P25116).
T1 construct: expressed in transfected cells; host or cells: CHO-K1 (transformant flag/trn/CHO-K1)
T1 sequence (P25116 22-425): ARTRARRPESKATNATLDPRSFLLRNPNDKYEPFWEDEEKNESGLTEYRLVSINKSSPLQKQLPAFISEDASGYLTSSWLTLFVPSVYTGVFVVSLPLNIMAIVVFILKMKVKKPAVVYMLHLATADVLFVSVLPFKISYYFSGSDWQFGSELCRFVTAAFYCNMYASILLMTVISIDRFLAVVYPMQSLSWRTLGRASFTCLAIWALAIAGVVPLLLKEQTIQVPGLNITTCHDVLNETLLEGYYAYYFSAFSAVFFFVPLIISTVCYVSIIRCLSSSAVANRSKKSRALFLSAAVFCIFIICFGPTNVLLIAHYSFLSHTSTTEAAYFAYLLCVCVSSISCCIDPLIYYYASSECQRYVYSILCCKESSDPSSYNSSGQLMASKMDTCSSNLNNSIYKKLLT
Nature of the assay: Evaluation of PAR-1 antagonistic action by intracellular calcium concentration variation assay (FLIPR). The class given is cell-based. The conditions noted are these: human PAR-1-expressing CHO cells, agonist peptide SFLLRN-NH2 final concentration 0.3 nM, Fluo-3AM. How it is done:
Evaluation of PAR-1 Antagonistic Action of Compound by Intracellular Calcium Concentration Variation Assay
Human PAR-1-expressing cells was plated at 3×10^4 cells/well on a 96 well clear bottom plate (Corning 3904 type) and cultured for 16-24 hr. The medium was removed from the wells of the plate, measurement buffer (50 μL, 115 mM NaCl, 5.4 mM KCl, 1.8 mM CaCl2, 0.8 mM MgCl2, 13.8 mM D-glucose, 0.1% BSA, 20 mM HEPES, pH 7.4) containing 2.5 μg/mL of Fluo-3AM (manufactured by Dojindo Laboratories), 0.08% Pluronic F-127 and 2.5 mM Probenecid was added to the cells and the mixture was reacted at 37° C. for 1 hr. The cells were washed twice with the measurement buffer. After addition of the measurement buffer (100 μL), a measurement buffer (50 μL) containing a test compound was added, and the mixture was stood still for 10 min. The plate was moved to a fluorometry image-plate reader (FLIPR-1, manufactured by Molecular Devices). […] The intracellular calcium concentration was measured by FLIPR.
Background: Calcium flux is commonly read through the fluorescence of an indicator in the cells.
`CCCc1c(C(=O)NC2CC2)nnn1-c1ccc(NC(=O)NCC)cc1` [Example 27, N-cyclopropyl-1-(4-{[(ethylamino)carbonyl]amino}phenyl)-5-propyl-1H-1,2,3-triazole-4-carboxamide]: the IC50 came out at 0.37 µM.

Take `CCCc1c(C(=O)NCCc2c[nH]c3ccc(OC)cc23)nnn1-c1ccc(C(=O)NCC)cc1` [Example 87, 1-{4-[(ethylamino)carbonyl]phenyl}-N-[2-(5-methoxy-1H-indol-3-yl)ethyl]-5-propyl-1H-1,2,3-triazole-4-carboxamide]: the IC50 turned out to be 0.28 µM.

In the case of `CCNC(=O)c1ccc(-n2nnc(C(=O)NC3CC3)c2/C=C/c2ccccc2)cc1` [Example 106, N-cyclopropyl-1-{4-[(ethylamino)carbonyl]phenyl}-5-[(E)-2-phenylvinyl]-1H-1,2,3-triazole-4-carboxamide], the half-maximal inhibitory concentration (IC50) came out at 0.4 µM.

Take `CCNC(=O)c1ccc(-n2nnc(C(=O)NC3CC3)c2COCc2ccccc2)cc1` [Example 94, 5-[(benzyloxy)methyl]-N-cyclopropyl-1-{4-[(ethylamino)carbonyl]phenyl}-1H-1,2,3-triazole-4-carboxamide]: the IC50 came to 1.7 µM.

As to `CCNC(=O)c1ccc(-n2cc(C(=O)NC3CC3)nn2)c(OCCCc2ccccc2)c1` [Example 133, N-cyclopropyl-1-{4-[(ethylamino)carbonyl]-2-(3-phenylpropoxy)phenyl}-1H-1,2,3-triazole-4-carboxamide], the IC50 came to 0.27 µM.

Turning to `CCCc1c(C(=O)NC2CC2)nnn1-c1ccc(C(=O)NC2CCCC2)cc1` [Example 54, 1-{4-[(cyclopentylamino)carbonyl]phenyl}-N-cyclopropyl-5-propyl-1H-1,2,3-triazole-4-carboxamide], the IC50 came out at 1.6 µM.

Regarding `CCCc1c(C(=O)NC2CC2)nnn1-c1ccc(NC(=O)NC)cc1` [Example 31, N-cyclopropyl-1-(4-{[(methylamino)carbonyl]amino}phenyl)-5-propyl-1H-1,2,3-triazole-4-carboxamide], the IC50 turned out to be 3.7 µM.

For the compound `CCCc1c(C(=O)NC2CC2)nnn1-c1ccc(NC(=O)C2CC2)cc1` [Example 4, N-cyclopropyl-1-{4-[(cyclopropylcarbonyl)amino]phenyl}-5-propyl-1H-1,2,3-triazole-4-carboxamide], the 50% inhibitory concentration (IC50) amounted to 0.55 µM.

With `CCCc1c(C(=O)NC2CC2)nnn1-c1ccc(C(=O)NC2CC2)cc1` [Example 53, N-cyclopropyl-1-{4-[(cyclopropylamino)carbonyl]phenyl}-5-propyl-1H-1,2,3-triazole-4-carboxamide], the IC50 came out at 3.4 µM.

Regarding `CCNC(=O)c1ccc(-n2nnc(C(=O)NC3CC3)c2COc2cccc(F)c2)cc1` [Example 414, N-cyclopropyl-1-{4-[(ethylamino)carbonyl]phenyl}-5-[(3-fluorophenoxy)methyl]-1H-1,2,3-triazole-4-carboxamide], the half-inhibitory concentration (IC50) was 0.19 µM.

Regarding `CCNC(=O)c1ccc(-n2nnc(C(=O)NC3CC3)c2CSc2ccccc2)cc1` [Example 130, N-cyclopropyl-1-{4-[(ethylamino)carbonyl]phenyl}-5-[(phenylthio)methyl]-1H-1,2,3-triazole-4-carboxamide], the IC50 stood at 0.48 µM.

Regarding `CCCc1c(C(=O)NC2CC2)nnn1-c1ccc(NC(=O)C(C)C)cc1` [Example 3, N-cyclopropyl-1-[4-(isobutyrylamino)phenyl]-5-propyl-1H-1,2,3-triazole-4-carboxamide], the IC50 amounted to 0.52 µM.

With `CCNC(=O)c1ccc(-n2nnc(C(=O)NC3CC3)c2CC2CCCCC2)cc1` [Example 102, 5-(cyclohexylmethyl)-N-cyclopropyl-1-{4-[(ethylamino)carbonyl]phenyl}-1H-1,2,3-triazole-4-carboxamide], the IC50 was 1.8 µM.

Consider `CCNC(=O)c1ccc(-n2nnc(C(=O)NC3CC3)c2-c2ccccc2)cc1` [Example 105, N-cyclopropyl-1-{4-[(ethylamino)carbonyl]phenyl}-5-phenyl-1H-1,2,3-triazole-4-carboxamide], for which the IC50 worked out at 2.7 µM.

Take `CCNC(=O)c1ccc(-n2nnc(C(=O)NC3CC3)c2Cc2ccccc2)cc1` [Example 99, 5-benzyl-N-cyclopropyl-1-{4-[(ethylamino)carbonyl]phenyl}-1H-1,2,3-triazole-4-carboxamide]: the half-inhibitory concentration (IC50) was 1.3 µM.

Consider `CCCc1c(C(=O)NC2CC2)nnn1-c1ccc(NC(=O)C(F)(F)F)cc1` [Example 16, N-cyclopropyl-5-propyl-1-{4-[(trifluoroacetyl)amino]phenyl}-1H-1,2,3-triazole-4-carboxamide], for which the IC50 stood at 0.25 µM.

Take `CCCc1c(C(=O)NC2CC2)nnn1-c1ccc(C(=O)NC(C)C)cc1` [Example 49, N-cyclopropyl-1-{4-[(isopropylamino)carbonyl]phenyl}-5-propyl-1H-1,2,3-triazole-4-carboxamide]: the half-inhibitory concentration (IC50) is 3.5 µM.

For `CCCc1c(C(=O)NC2CC2)nnn1-c1ccc(C(=O)NCC(F)(F)F)cc1` [Example 46, N-cyclopropyl-5-propyl-1-(4-{[(2,2,2-trifluoroethyl)amino]carbonyl}phenyl)-1H-1,2,3-triazole-4-carboxamide], the IC50 was 0.95 µM.

As for `CCCc1c(C(=O)NCc2cnc(C)cn2)nnn1-c1ccc(C(=O)NCC)cc1` [Example 83, 1-{4-[(ethylamino)carbonyl]phenyl}-N-[(5-methylpyrazin-2-yl)methyl]-5-propyl-1H-1,2,3-triazole-4-carboxamide], the half-inhibitory concentration (IC50) is 3.6 µM.

Turning to `CCCc1c(C(=O)NC2CC2)nnn1-c1ccc(C(=O)NCC)cc1Cl` [Example 72, 1-{2-chloro-4-[(ethylamino)carbonyl]phenyl}-N-cyclopropyl-5-propyl-1H-1,2,3-triazole-4-carboxamide], the IC50 is 3.4 µM.

On to `CCNC(=O)c1ccc(-n2nnc(C(=O)NC3CC3)c2CCCF)cc1` [Example 109, N-cyclopropyl-1-{4-[(ethylamino)carbonyl]phenyl}-5-(3-fluoropropyl)-1H-1,2,3-triazole-4-carboxamide], for which the concentration for half-maximal inhibition (IC50) came out at 3.4 µM.

For `CCNC(=O)c1ccc(-n2nnc(C(=O)NC3CC3)c2COc2ccc(OC)cc2)cc1` [Example 122, N-cyclopropyl-1-{4-[(ethylamino)carbonyl]phenyl}-5-[(4-methoxyphenoxy)methyl]-1H-1,2,3-triazole-4-carboxamide], the half-maximal inhibitory concentration (IC50) was 3.3 µM.

On to `CCCc1c(C(=O)NC2CC2)nnn1-c1ccc(NC(=O)COC)cc1` [Example 19, N-cyclopropyl-1-{4-[(methoxyacetyl)amino]phenyl}-5-propyl-1H-1,2,3-triazole-4-carboxamide], for which the IC50 was 0.75 µM.

For the compound `CCNC(=O)c1ccc(-n2nnc(C(=O)NC3CC3)c2CCCCCc2ccccc2)cc1` [Example 101, N-cyclopropyl-1-{4-[(ethylamino)carbonyl]phenyl}-5-(5-phenylpentyl)-1H-1,2,3-triazole-4-carboxamide], the IC50 was found to be 0.82 µM.

For the compound `C/C=C/c1c(C(=O)NC2CC2)nnn1-c1ccc(C(=O)NCC(F)(F)F)cc1` [Example 399, N-cyclopropyl-5-[(1E)-prop-1-en-1-yl]-1-(4-{[(2,2,2-trifluoroethyl)amino]carbonyl}phenyl)-1H-1,2,3-triazole-4-carboxamide], the IC50 turned out to be 1.4 µM.

Turning to `CCNC(=O)c1ccc(-n2nnc(C(=O)NC3CC3)c2CCCc2ccccc2)cc1` [Example 100, N-cyclopropyl-1-{4-[(ethylamino)carbonyl]phenyl}-5-(3-phenylpropyl)-1H-1,2,3-triazole-4-carboxamide], the IC50 was 0.7 µM.

For `CCCNC(=O)c1ccc(-n2nnc(C(=O)NC3CC3)c2CCC)cc1` [Example 55, N-cyclopropyl-5-propyl-1-{4-[(propylamino)carbonyl]phenyl}-1H-1,2,3-triazole-4-carboxamide], the concentration for half-maximal inhibition (IC50) came to 3.6 µM.

Take `CCCc1c(C(=O)NCc2ccccn2)nnn1-c1ccc(C(=O)NCC)cc1` [Example 84, 1-{4-[(ethylamino)carbonyl]phenyl}-5-propyl-N-(pyridin-2-ylmethyl)-1H-1,2,3-triazole-4-carboxamide]: the IC50 came out at 1.3 µM.

`CCNC(=O)c1ccc(-n2nnc(C(=O)NC3CC3)c2CC2CC2)cc1` [Example 96, N-cyclopropyl-5-(cyclopropylmethyl)-1-{4-[(ethylamino)carbonyl]phenyl}-1H-1,2,3-triazole-4-carboxamide]: the IC50 is 1.2 µM.

`C=CCCc1c(C(=O)NC2CC2)nnn1-c1ccc(NC(=O)NCC)cc1` [Example 41, 5-(3-buten-1-yl)-N-cyclopropyl-1-(4-{[(ethylamino)carbonyl]amino}phenyl)-1H-1,2,3-triazole-4-carboxamide]: the IC50 came to 0.63 µM.

As to `CCCc1c(C(=O)NC2CCCc3ccccc32)nnn1-c1ccc(C(=O)NCC)cc1` (stereo not shown) [Example 89, 1-{4-[(ethylamino)carbonyl]phenyl}-5-propyl-N-(1,2,3,4-tetrahydronaphthalen-1-yl)-1H-1,2,3-triazole-4-carboxamide], the half-maximal inhibitory concentration (IC50) amounted to 0.67 µM.

Values taken from US7803822B2, “Triazole derivative and use thereof” (Takeda Pharmaceutical Company Limited, priority 2005, dated 2010).
